Test results reported in patent EP0234500A1, “Antiasthma inhalation compositions” (RORER PHARMACEUTICAL CORPORATION, priority 1986, dated 1987).
Where “and” joins values, the source holds several entries; their conditions need not be identical. Equal values may be shown once. Where a name gives a salt, the structure may show the parent alone.

Legend:
[1] = Solubility of the active compound in ethanol/propellant mixture; format: physicochemical
Description: Other aspects of the present invention include solubility of the active compound in the pharmaceutically acceptable solvent, ethyl alcohol, the maintainance in solution of the active compound upon the addition of the propellant(s) and the particle size distribution of the aerosol preparation. The compounds of the present invention are soluble in ethyl alcohol.

[2] = Particle size distribution and MMAD of aerosol formulations; format: physicochemical; parameters: MMAD**: unit: micrometers (µm); conditions: for MMAD**: Mass Median Aerodynamic Diameter; for Part. Size (mg collected) per 20 actuations 4 µ*: Particle Size Limit = 4 µ to 8 µ; for mg at 1-8 µ: per 20 actuations
Description: Other essential properties of aerosol formulations are the particle size distribution and the related mass median aerodynamic diameter of the particles. It is generally required that the effective range for inahalation products be approximately in the range of 1 to 8 micrometers (um). The particle size distribution helps, inter alia, to reduce loss on impaction on the tongue and oropharynx of the particles expelled from the pressurized container.

[3] = system: Male Hartley guinea pigs; experiment: Antigen-induced bronchoconstriction in ovalbumin-immunized anesthetized guinea pigs, aerosol administration; format: in vivo; conditions: 1% aerosol formulation, 25 actuations, approximately 5 mg (or 15 mg/kg), 15 minutes before ovalbumin 0.3 mg/kg i.v. challenge, n=7
Description: Male Hartley guinea pigs (200-250 g) were immunized with ovalbumin, 2.7 mg/kg i.p., followed in 30 minutes by Salmonella typhosa lipopolysaccharide, 20 ug i.p. Thirteen to fifteen days after immunization, each guinea pig was anesthetized with sodium pentobarbital, 50 mg/kg i.p., and a jugular vein and the trachea were cannulated. The animal was mechanically ventilated (80 breaths/min. 2ml/breath). Needle electrodes were attached to the limbs for monitoring ECG and heart rate. Airway pressure was measured with a Validyne pressure transducer (+ 20 cm H20 range) connected to the tracheal cannula. Airway pressure for each breath was recorded on a polygraph, while mean values over 6-second periods were printed on a digital terminal. […] All bronchoconstrictor responses to the second dose of LTD4 and to antigen were quantified as the percent increase in airway pressure over the baseline value. The normalized response of each animal is expressed as the ratio of antigen-induced to LTD4-induced bronchoconstriction. Mean values and standard errors of these ratios in control and drug-treated groups were calculated and compared statistically by Student's t-test. The activity of each drug is expressed as the percent inhibition of the mean control response.

[4] = Compound of Example 1 1.0, ETOH 5.0, P 114 47, P 12 47, hydrochloride
[5] = Compound of Example 1 1.0, ETOH 10.0, P 114 25.0, P 12 75.0
[6] = Compound of Example 1 1.0, ETOH 10.0, P 114 35, P 12 53
[7] = Compound of Example 1 1.0, ETOH 10.0, P 114 44.5, P 12 44.5
[8] = Compound of Example 1 1.0, ETOH 10.0, P 114 44.5, P 12 44.5, hydrochloride
[9] = Compound of Example 1 2.0, ETOH 10.0, P 114 44.00, P 12 44.00
[10] = Compound of Example 1 2.5, ETOH 10.0, P 114 43.75, P 12 43.75, hydrochloride
[11] = Compound of Example 1 3.0, ETOH 10.0, P 114 43.5, P 12 43.5
[12] = Compound of Example 1 3.5, ETOH 10.0, P 114 43.25, P 12 43.25
[13] = Compound of Example 1 5.0, ETOH 30.0, P 114 32.5, P 12 32.5
[14] = Compound of Example 1 6.0, ETOH 20.0, P 114 29.6, P 12 44.4
[15] = Compound of Example 1 9.0, ETOH 30.0, P 114 17, P 12 44

Solubility at 24°C ([1]; Ethanol (W/W) 5%, Propellants 114/12 (50/50 Mixture) 93.2%): 1.8%
Solubility at 24°C ([1]; Ethanol (W/W) 10%, Propellants 114/12 (50/50 Mixture) 86.0%): 4.0%
Solubility at 24°C ([1]; Ethanol (W/W) 20%, Propellants 114/12 (50/50 Mixture) 74.0%): 6.0%
Solubility at 24°C ([1]; Ethanol (W/W) 30%, Propellants 114/12 (50/50 Mixture) 61.0%): 9.0%
Part. Size (mg collected) per 20 actuations 1 µ [2, 4]: 0.448 mg and 0.607 mg and 0.667 mg
Part. Size (mg collected) per 20 actuations 2 µ [2, 4]: 0.973 mg and 1.529 mg and 1.532 mg
Pressure PSI [2, 4]: 58.7 PSI and 60.2 PSI
cum % 1-8 µ [2, 4]: 57.74% and 60.73% and 66.20%
Part. Size (mg collected) per 20 actuations 1 µ [2, 5]: 0.499 mg
Part. Size (mg collected) per 20 actuations 2 µ [2, 5]: 1.167 mg
cum % 1-8 µ [2, 5]: 45.36%
Part. Size (mg collected) per 20 actuations 1 µ [2, 6]: 0.503 mg
Part. Size (mg collected) per 20 actuations 2 µ [2, 6]: 1.201 mg
Pressure PSI [2, 6]: 56 PSI
cum % 1-8 µ [2, 6]: 55.41%
Pressure PSI [2, 7]: 49.3 PSI
Part. Size (mg collected) per 20 actuations 1 µ [2, 8]: 0.498 mg and 0.479 mg
Part. Size (mg collected) per 20 actuations 2 µ [2, 8]: 1.243 mg and 0.868 mg
cum % 1-8 µ [2, 8]: 53.70% and 57.26%
Part. Size (mg collected) per 20 actuations 1 µ [2, 9]: 0.661 mg
Part. Size (mg collected) per 20 actuations 2 µ [2, 9]: 1.373 mg
cum % 1-8 µ [2, 9]: 46.71%
Part. Size (mg collected) per 20 actuations 1 µ [2, 10]: 0.514 mg and 0.528 mg and 0.638 mg
Part. Size (mg collected) per 20 actuations 2 µ [2, 10]: 1.380 mg and 1.435 mg and 1.106 mg
cum % 1-8 µ [2, 10]: 44.86% and 44.36% and 42.87%
Part. Size (mg collected) per 20 actuations 1 µ [2, 11]: 0.538 mg
Part. Size (mg collected) per 20 actuations 2 µ [2, 11]: 1.478 mg
cum % 1-8 µ [2, 11]: 40.15%
Part. Size (mg collected) per 20 actuations 1 µ [2, 12]: 0.583 mg
Part. Size (mg collected) per 20 actuations 2 µ [2, 12]: 1.236 mg
cum % 1-8 µ [2, 12]: 35.00%
Part. Size (mg collected) per 20 actuations 1 µ [2, 13]: 0.336 mg
Part. Size (mg collected) per 20 actuations 2 µ [2, 13]: 0.852 mg
Pressure PSI [2, 13]: 52 PSI
cum % 1-8 µ [2, 13]: 32.09%
Part. Size (mg collected) per 20 actuations 1 µ [2, 14]: 0.447 mg
Part. Size (mg collected) per 20 actuations 2 µ [2, 14]: 0.901 mg
Pressure PSI [2, 14]: 52.0 PSI
cum % 1-8 µ [2, 14]: 28.77%
Part. Size (mg collected) per 20 actuations 1 µ [2, 15]: 0.394 mg
Part. Size (mg collected) per 20 actuations 2 µ [2, 15]: 0.818 mg
Pressure PSI [2, 15]: 53.7 PSI
cum % 1-8 µ [2, 15]: 28.79%
MMAD** [2, 4]: 3.0 and 2.8
MMAD** [2, 5]: 4.0
MMAD** [2, 6]: 3.5
MMAD** [2, 7]: 3.0
MMAD** [2, 9]: 3.8
MMAD** [2, 10]: 3.8 and 4.0
MMAD** [2, 11]: 4.0
MMAD** [2, 12]: 4.5
MMAD** [2, 13]: 6.0
MMAD** [2, 14]: 5.75
MMAD** [2, 15]: 6.0
Part. Size (mg collected) per 20 actuations 4 µ* [2, 4]: 2.091 mg and 2.522 mg and 2.481 mg
Part. Size (mg collected) per 20 actuations 4 µ* [2, 5]: 1.611 mg
Part. Size (mg collected) per 20 actuations 4 µ* [2, 6]: 2.283 mg
Part. Size (mg collected) per 20 actuations 4 µ* [2, 8]: 1.871 mg and 1.715 mg
Part. Size (mg collected) per 20 actuations 4 µ* [2, 9]: 2.772 mg
Part. Size (mg collected) per 20 actuations 4 µ* [2, 10]: 3.121 mg and 3.103 mg and 2.744 mg
Part. Size (mg collected) per 20 actuations 4 µ* [2, 11]: 2.657 mg
Part. Size (mg collected) per 20 actuations 4 µ* [2, 12]: 3.546 mg
Part. Size (mg collected) per 20 actuations 4 µ* [2, 13]: 2.084 mg
Part. Size (mg collected) per 20 actuations 4 µ* [2, 14]: 2.879 mg
Part. Size (mg collected) per 20 actuations 4 µ* [2, 15]: 2.381 mg
mg at 1-8 µ [2, 4]: 3.512 mg and 4.658 mg and 4.680 mg
mg at 1-8 µ [2, 5]: 3.277 mg
mg at 1-8 µ [2, 6]: 3.987 mg
mg at 1-8 µ [2, 8]: 3.612 mg and 3.062 mg
mg at 1-8 µ [2, 9]: 4.806 mg
mg at 1-8 µ [2, 10]: 5.015 mg and 5.066 mg and 4.488 mg
mg at 1-8 µ [2, 11]: 4.673 mg
mg at 1-8 µ [2, 12]: 5.365 mg
mg at 1-8 µ [2, 13]: 3.272 mg
mg at 1-8 µ [2, 14]: 4.227 mg
mg at 1-8 µ [2, 15]: 3.593 mg
SMILES: CCCCCC(O)c1cccc(OCc2ccc3ccccc3n2)c1 (stereo not drawn) [Compound of Example 1, 2-(3-(l-Hydroxyhexyl)phenoxymethyl)quinoline hydrochloride]
percent inhibition of the mean control response [3]: 53%
normalized postchallenge increase in PAW (ratio of antigen-induced to LTD4-induced bronchoconstriction), mean response ([3]; mean and standard error): 0.60 ± 0.16
